Laboratory results: patent US20260283990A1, “COMPOUNDS FOR TREATING RETT SYNDROME AND OTHER DISORDERS” (UNRAVEL BIOSCIENCES, INC., priority 2023, published 2026)
“Also recorded” adds a separate entry of the source. Where two headings read alike, the source gives them in different places. Square brackets hold non-standard residues; d marks the D form. Peptide text beside a SMILES is read from it. αMeP = C[C@@]1(C(=O)O)CCCN1

How the values were obtained:
RTT tadpoles (MeCP2 KD) = test: Tadpole tracking system: swimming behavior of RTT (MeCP2 KD) tadpoles; format: in vivo, Xenopus; details: for swimming pattern of treated RTT tadpoles: n=5 per dish
Procedure: FIGS. 4A-4F. FIG. 4A) Occupation density plot from tracking tadpoles swimming and resting locations over a 10-minute recording session (n=5 per 10 ml dish, at 30 frames per seconds), where high density means the tadpoles where recorded at that XY coordinate most frequently. FIG. 4A) wild-type tadpoles (WT) normal behavior is to swim along the edge of the dish in an area termed the “outer area”, while the area within the white center circle is termed the “inner area” and is mostly dark. […] Additionally, RTT tadpoles cover less distance in the outer area, preferring to cross the inner area. FIG. 4C) example of multiple parameters derived from the tracking system, highlighting metrics corresponding to behavioral phenotypes. FIG. 4D) one such metric of epoch-based entropy which captures information about the swimming behavior over a recording session and how a group diverges from the others, in this case indicating favorable improvement in RTT tadpole symptoms treated with RVL002 (epoch=15-second). FIG. 4E) one such metric is the inner area circular swimming. Locomotor assays is commonly used in mouse model of neurological diseases, it can also assess the behavior in tadpole models. Both vorinostat and RVL002 reduced the average inner dish circular swimming behavior in KD tadpoles compared to vehicle controls.
(§1) Briefly, Xenopus embryos at the 4-cell stage were microinjected with Cas9 protein and guide RNA complex aimed at 3 sites of the MeCP2 gene corresponding to DNA binding and the mutation locations of the most severe patient cases. Embryos could develop into free-swimming tadpoles, and no effect on viability was observed relative to controls. Tadpoles presented a spectrum of behavioral phenotypes, including seizures. qPCR analysis confirmed a range of MeCP2 KO of 5-95% of the cells, and immunostaining of tissue sections indicated mosaic and overall reduction of MeCP2 protein levels and a-tubulin acetylation (Novak et al. 2022). Based on seizure and behavioral screens in RTT tadpoles, we evaluate the tolerability and efficacy of any number of predicted compounds. The top performing drug is vorinostat, a hydroxamic acid pan-Histone Deacetylase inhibitor (HDACi), approved for cutaneous T cell lymphoma (Novak et al., 2022). […] These six scores are then summed to provide a cumulative severity score from 0-12 (Guy et al., 2001, 2007).
(§2) Using our tadpole tracking system, we evaluated the effect of vorinostat and RVL002 on WT and RTT tadpoles swimming behavior (FIGS. 4A-4F). WT tadpoles spend most of the time swimming along the outside of the dish and only occasionally cross through the center of the dish, while RTT tadpoles swim more erratically and tend to dart through the center of the dish and stop more frequently (FIG. 4A-4B, n=5 per dish). These abnormal swimming patterns could be related to motor irregularities and seizures seen in human RTT patients. […] The entropy captures deviations in swimming behavior, including distance and area explored. […] We compared the gene expression signatures of vorinostat- and RVL002-treated tadpole RTT model animals and wild type controls. In wild type animals, 100% of genes with significant expression changes (fold change >2, p<0.05) due to vorinostat treatment were accounted for by RVL002 treatment. In RTT animals, RVL002 replicated 92.5% of gene expression changes.

HDAC = test: HDACi activity (statement, no method)
[1] = test system: tadpole RTT model animals and wild type controls; test: Gene expression signatures of vorinostat- and RVL002-treated tadpoles; format: in vivo, Xenopus
Excerpt: as §2

[2] = test system: brain and muscle gene networks and pathways; test: RNAseq of brain and muscle of dosed mice analysed with BioNav / Reactome; format: in vivo, C57B/L6 mice
Procedure: FIGS. 2A-2B. BioNav™ plots organized by chemical structure similarity of 40,000 compounds. Differential scores of predicted drugs mimicking vorinostat- or RVLOO2-dosed mouse brain (FIG. 2A) or femoral muscle (FIG. 2B) are plotted. Cluster of HDAC inhibitors is circled (FIG. 2B).
FIGS. 3A-3E. […] Genes associated with network level changes in mice treated with vorinostat or RVL002 were analyzed and sorted according to Reactome.org pathways (91). RVL002 engages pathways in the brain and muscle tissues similar to those resulting from vorinostat dosing (FIG. 3A). […] RVL002 engages MeCP2 pathways in the brain and muscle tissues (FIG. 3E).
Brain and muscle tissues from these mice were submitted to RNA sequencing (RNAseq) and analyzed on our BioNav™ generated from the network model of 40,000 compounds with transcriptomic data. […] By taking our calculated interacting gene sets we identified genes and networks unique to RVL002 (FIGS. 3A-3E). The gene expression profiles of the brains of mice treated with vorinostat is largely due to its highly brain-permeable metabolite and this profile is closely mimicked by RVL002 while RVL002 increased bioavailability and biodistribution is reflected in a proportionally more extensive number of genes whose expression levels are altered. The top 4 pathways are associated with MeCP2 despite using wild-type C57B/L6 mice (Table 2), and several other pathways associated with MeCP2 are identified, albeit with lower statistical significance (Table 3).

MeCP2-/y mice [3] = test: Rett cumulative severity score in MeCP2-/y mice treated with RVL002; format: in vivo; details: 50 mg/kg P.O. daily after onset of severe symptoms (P34), vs vehicle
Procedure: (§3) FIGS. 5A-5B. Mice (KO MeCP2^−/y or WT littermates) were treated with 50 mg/kg P.O. RVL002 daily following the onset of severe symptoms at 34 days post-natal (P34).
(§4) Briefly, Xenopus embryos at the 4-cell stage were microinjected with Cas9 protein and guide RNA complex aimed at 3 sites of the MeCP2 gene corresponding to DNA binding and the mutation locations of the most severe patient cases. Embryos could develop into free-swimming tadpoles, and no effect on viability was observed relative to controls. Tadpoles presented a spectrum of behavioral phenotypes, including seizures. qPCR analysis confirmed a range of MeCP2 KO of 5-95% of the cells, and immunostaining of tissue sections indicated mosaic and overall reduction of MeCP2 protein levels and a-tubulin acetylation (Novak et al. 2022). Based on seizure and behavioral screens in RTT tadpoles, we evaluate the tolerability and efficacy of any number of predicted compounds. The top performing drug is vorinostat, a hydroxamic acid pan-Histone Deacetylase inhibitor (HDACi), approved for cutaneous T cell lymphoma (Novak et al., 2022). […]
Mice (MeCP2-/y or WT littermates) were treated with 50 mg/kg P.O. RVL002 daily following the onset of severe symptoms as determined by the Rett cumulative severity scoring system (Guy et al., 2001, 2007).

RTT tadpoles = test: Viability measurement in WT and RTT tadpoles; format: in vivo, Xenopus; details: RVL002 100 uM compared with vorinostat 50 uM, n=10 per condition
mecp2-acss3-2KD tadpoles = test: Tadpole tracking: double knockdown of MeCP2 and ACSS3 (mecp2-acss3-2KD); format: in vivo, Xenopus laevis; details: 50 μM every other day from 6 dpf, recorded at 15 dpf
Procedure: FIGS. 6A-6C. […] Wild-type (WT), MeCP2 knockdown (mecp2-KD) and double knockdown of MeCP2 and ACSS3 (mecp2-acss3-2KD) tadpoles, were compared in the presence of absence of 50 μM RVL002 added to the swimming media every other day since 6 dpf.
Using our tadpole tracking system, we evaluated the effect of RVL002 on WT, RTT and tadpoles deficient for both MeCP2 and ACSS3 (FIGS. 6A-6C).

MeCP2-/y mice [4] = test: Optomotor assay in MeCP2-/y mice treated with RVL002; format: in vivo; details: 50 mg/kg P.O. daily from P34
Procedure: as §3

[5] = Pharmacokinetic study in C57BL/6J mice (plasma and tissues); format: in vivo
Mecp2-null male mice [6] = details: cited from earlier work; for Rett cumulative severity score, head-to-head comparison: older mice with extensive symptoms prior to treatment; for efficacy when starting treatment after the onset of symptoms: start P36
RTT tadpole model = test: Drug screen in the RTT tadpole model (behavior, survival, seizures, toxicity); format: in vivo, Xenopus; details: seizures as readout
Excerpt: as §1
RTT tadpole transcriptomes were compared against wild-type (WT) sibling transcriptomes using our proprietary BioNav™ software, which ranked the entirety of compounds from the National Institute of Health (NIH) Library of Integrated Network-Based Cellular Signatures (LINCS) database (Keenan et al., 2018) that were predicted to shift a RTT state to a healthy state. The top candidates were downselected to include only FDA-approved drugs and screened in the RTT tadpole model using behavior, survival, and seizures as an efficacy readout, together with toxicity phenotypes. […] Vorinostat was selected for more detailed evaluation in tadpoles and mouse models. […] Ciliary morphology was also normalized by drug treatment across the entire body, and vorinostat reduced Ib4+ inflammatory cells in the GI tract (Novak et al., 2022).

[7] = test system: RTT models (MeCP2 deficit); details: cited from earlier work
[8] = Pharmacokinetic (PK) assay of vorinostat, oral vs. IP; format: in vivo
microtubule = test: Microtubule polymerization assays; format: biochemical
tadpole proteome = details: whole organism Thermal Proteome Profiling; cited from earlier work
Mecp2-null male mice [9] = test: Vorinostat and trofinetide in the MeCP2-null mouse model; format: in vivo; details: daily IP from P30
Excerpt: as §4
Using trofinetide as a positive control, we evaluated the feasibility of initiating drug dosing starting at 30 days post-natal (P30), unlike the majority of RTT pre-clinical studies starting before the onset of symptoms. […] We evaluated the comparative efficacy of oral vs. IP dosing of vorinostat in MeCP2-null mice starting at 36 days post-natal (P36), well after the onset of symptoms, to better mimic clinical presentation of RTT patients.

O=C(O)CCC(=O)Nc1ccccc1 [RVL002, succinanilic acid]
reduction in inner dish circular swimming compared to vehicle dosed KDs (RTT tadpoles (MeCP2 KD); RTT KD tadpoles, 50 μM): 78%
epoch-based entropy of swimming behavior (RTT tadpoles (MeCP2 KD); RTT tadpoles, 15-second epoch): rescue the behavior of RTT tadpoles
swimming pattern of treated RTT tadpoles (RTT tadpoles (MeCP2 KD); RTT tadpoles): adopt more circular motion and stop less frequently
HDACi activity (HDAC): lacks HDACi activity
gene expression changes of vorinostat replicated by RVL002 ([1]; RTT animals): 92.5%
genes with significant expression changes due to vorinostat treatment accounted for by RVL002 treatment ([1]; wild type animals, fold change >2, p<0.05): 100%
muscle RNAseq differences in the cluster of HDAC inhibitors (BioNav) ([2]; mouse femoral muscle, 50 mg/kg p.o.): acts through non-HDAC-mediated pathways
Reactome pathways of genes unique/responding to RVL002 ([2]; wild-type mice, brain and muscle (Tables 2, 3)): MeCP2-pathway-mediated effect
Rett cumulative severity score (MeCP2-/y mice [3]): delayed the progression in severity of behavioral and physiological phenotypes; also recorded: significantly reduce the severity of the Rett syndrome phenotypes
tolerability and viability of RTT tadpoles (RTT tadpoles): well tolerated and improves the viability of RTT tadpoles
response across exploratory behavior, swimming velocity and number of tadpoles in a school (mecp2-acss3-2KD tadpoles): did not respond
optomotor assay (MeCP2-/y mice [4]): delayed the progression in severity of behavioral and physiological phenotypes
RVL002/vorinostat Ratio of T1/2 ([5]; mouse, in vivo): 2.6
RVL002/vorinostat Ratio of Tmax ([5]; mouse, in vivo): 0.8
biodistribution, crossing the blood brain barrier ([5]; mouse, in vivo, 50 mg/kg): better biodistribution including in crossing the blood brain barrier
AUC(0-inf) ([5]; mouse, in vivo, ip, 50 mg/kg): 11600 ng·h/mL
AUC(0-t) ([5]; mouse, in vivo, ip, 50 mg/kg): 11800 ng·h/mL
Cmax ([5]; mouse, in vivo, ip, 50 mg/kg): 12300 ng/mL
Tmax ([5]; mouse, in vivo, ip, 50 mg/kg): 0.3 h
half-life ([5]; mouse, in vivo, ip, 50 mg/kg): 3.3 h

C[C@@]1(C(=O)N[C@@H](CCC(=O)O)C(=O)O)CCCN1C(=O)CN [Trofinetide, trofinetide] (H-Gly-[αMeP]-Glu-OH)
Rett cumulative severity score, head-to-head comparison (Mecp2-null male mice [6]): did not improve the cumulative severity score
efficacy when starting treatment after the onset of symptoms (Mecp2-null male mice [6]; trofinetide): failed to show efficacy
reversal of RTT symptoms in RTT tadpole screen (RTT tadpole model): showed efficacy, albeit lower than the predicted drugs

O=C(CCCCCCC(=O)Nc1ccccc1)NO [Vorinostat, vorinostat]
reduction in average inner dish swimming compared to vehicle dosed KDs (RTT tadpoles (MeCP2 KD); RTT KD tadpoles, 5 μM): 42%
swimming pattern of treated RTT tadpoles (RTT tadpoles (MeCP2 KD); RTT tadpoles): patterns suggestive of darting and seizure are still observed
abnormal cilia morphology in the olfactory bulb ([7]; MeCP2 deficit): reversed
Ib4+ inflammatory cells in the GI tract ([7]; RTT models): reduced
a-tubulin acetylation in brain and elsewhere in the body ([7]; RTT models): normalized
release profile after oral dosing [8]: more sustained release of vorinostat at lower concentrations
overlap of vorinostat with RVL002 in HDAC associated pathways ([2]; muscle tissues (FIG. 3D)): 97.3%
microtubule polymerization (microtubule): mild microtubule polymerization effects
α- and β-tubulins, acetyl CoA synthetase 3, ribosome protein S6 as targets (tadpole proteome): significant, direct targets
efficacy when starting treatment after the onset of symptoms (Mecp2-null male mice [6]; IP delivery): failed to show efficacy
Rett cumulative severity score, head-to-head comparison (Mecp2-null male mice [6]): effective improvement
efficacy when starting treatment after the onset of symptoms (Mecp2-null male mice [6]; oral dosing): improved efficacy
reversal of RTT symptoms in RTT tadpole screen (RTT tadpole model): stronger reversal of RTT symptoms at nontoxic concentrations
Tmax ([5]; C57BL/6J mice, 50 mg/kg intraperitoneally, mean): 0.3 h
biodistribution, crossing the blood brain barrier ([5]; mouse, in vivo, 50 mg/kg): does not efficiently cross the blood brain barrier
AUC(0-inf) ([5]; mouse, in vivo, ip, 50 mg/kg): 640 ng·h/mL
AUC(0-t) ([5]; mouse, in vivo, ip, 50 mg/kg): 632 ng·h/mL
Cmax ([5]; mouse, in vivo, ip, 50 mg/kg): 713 ng/mL
half-life ([5]; mouse, in vivo, ip, 50 mg/kg): 1.3 h
efficacy by Rett cumulative severity scoring system, 50 vs 100 mg/kg (Mecp2-null male mice [9]): better efficacy at 50 mg/kg
Y-maze performance, brain and GI tubulin acetylation normalization, inflammatory cytokine levels, colon goblet cells inflammation (Mecp2-null male mice [9]; vorinostat vs trofinetide 75 mg/kg): outperformed trofinetide

ivermectin
microtubule polymerization (microtubule): mild microtubule polymerization effects
α- and β-tubulins, acetyl CoA synthetase 3, ribosome protein S6 as targets (tadpole proteome): significant, direct targets
reversal of RTT symptoms in RTT tadpole screen (RTT tadpole model): stronger reversal of RTT symptoms at nontoxic concentrations
